# Results from patent publication US10610522B2, “Methods for retreating irritable bowel syndrome (IBS)” (Salix Pharmaceuticals, Inc., priority 2014, dated 2020).
# “And” between values parts separate entries of the source, which are not always exact repeats. Equal values may be shown once.
# What was measured:
# [1] = tested on: non-constipation IBS; assay: Study 1 (TARGET 1): rifaximin 550 mg TID 14 days vs placebo in non-C IBS, 10-week follow-up; type: in vivo, human
# Description: A measure of efficacy is based on subjects' answers to the Weekly Subject Global Assessment (SGA) questions over the study duration in relation to their IBS symptoms.
# Additionally subjects having a stool consistency score of <4 and at least a 1 point reduction in average daily IBS score were identified. […]
# In TARGET 1 and 2, the primary endpoint was the proportion of patients who achieved adequate relief of IBS symptoms for at least 2 of 4 weeks during the month following 14 days of treatment. Adequate relief was defined as a response of “yes” to the following weekly Subject Global Assessment (SGA) question: “In regards to your IBS symptoms, compared to the way you felt before you started study medication, have you, in the past 7 days, had adequate relief of your IBS symptoms? [Yes/No]”
# The key secondary endpoint was the proportion of patients who achieved adequate relief of IBS-related bloating for at least 2 of 4 weeks during the month following 2 weeks of treatment. Adequate relief of IBS-related bloating was defined as a response of “yes” to the following weekly (every 7 days) SGA question: “In regards to your IBS symptom of bloating, compared to the way you felt before you started study medication, have you, in the past 7 days, had adequate relief of your IBS symptom of bloating?
# The trials examined a composite endpoint which defined responders by IBS-related abdominal pain and stool consistency measures. Patients were responders if they experienced a ≥30% decrease from baseline in abdominal pain for ≥2 weeks during the month following 2 weeks of treatment. […] Patients were monthly responders if they met criteria for BOTH abdominal pain and stool consistency ≥2 weeks per month. […] (See Table 60.)
# [2] = target: cytochrome P450 2D6 (Homo sapiens, UniProt P10635); assay: In vitro cytochrome P450 inhibition; type: biochemical; conditions: 2 to 200 ng/mL
# [3] = tested on: CYP3A4; assay: CYP3A4 induction study
# [4] = Study 1, at least 2 weeks during PEP
# [5] = TARGET 1, month following two weeks of treatment, 550 mg TID, N = 309
# cytochrome P450 2D6, sequence (P10635 whole entry): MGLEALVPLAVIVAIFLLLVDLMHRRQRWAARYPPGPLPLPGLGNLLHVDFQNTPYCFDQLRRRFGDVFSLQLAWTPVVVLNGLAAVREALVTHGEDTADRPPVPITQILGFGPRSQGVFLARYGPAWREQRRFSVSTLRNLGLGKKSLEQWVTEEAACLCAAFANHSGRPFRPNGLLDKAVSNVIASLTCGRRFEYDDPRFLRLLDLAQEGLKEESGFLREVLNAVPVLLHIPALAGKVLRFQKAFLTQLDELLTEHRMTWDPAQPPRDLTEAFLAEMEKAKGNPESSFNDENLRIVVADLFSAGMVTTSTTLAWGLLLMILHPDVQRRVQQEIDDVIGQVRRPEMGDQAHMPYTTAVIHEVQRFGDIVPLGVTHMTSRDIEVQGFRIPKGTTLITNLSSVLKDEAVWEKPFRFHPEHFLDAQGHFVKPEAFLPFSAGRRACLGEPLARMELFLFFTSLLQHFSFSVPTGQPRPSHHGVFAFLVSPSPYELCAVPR
compound,measurement,setting,value
"CO[C@H]1/C=C/O[C@@]2(C)Oc3c(C)c(O)c4c(O)c(c5c(nc6cc(C)ccn65)c4c3C2=O)NC(=O)/C(C)=C\C=C\[C@H](C)[C@H](O)[C@@H](C)[C@@H](O)[C@@H](C)[C@H](OC(C)=O)[C@@H]1C [Rifaximin, (2S,16Z,18E,20S,21S,22R,23R,24R,25S,26S,27S,28E)-5,6,21,23,25 Pentahydroxy-27-methoxy-2,4,11,16,20,22,24,26-octamethyl-2,7-(epoxypentadeca-(1,11,13)trienimino) benzofuro (4,5-e) pyrido(1,2-a) benzimidazole-1,15(2H)-dione,25-acetate]",IBS symptom of bloating: adequate relief at least 2 out of 4 weeks during weeks 3 through 6 (weekly question),[1]; Study 1 / TARGET 1,40%
same,Global IBS symptoms: adequate relief at least 2 out of 4 weeks during weeks 3 through 6 (weekly question),"[1]; Study 1 / TARGET 1, 550 mg TID 14 d",41% and 31% vs 41%
same,Responders: abdominal pain reduction of 1 point in weekly mean,[1]; [4],52%
same,Responders: abdominal pain reduction of 1 point in weekly median,[1]; [4],63%
same,Responders: abdominal pain reduction of 2 point in mean,[1]; [4],26%
same,Responders: abdominal pain reduction of 2 point in median,[1]; [4],37%
same,Responders: abdominal pain reduction of 3 point in mean,[1]; [4],6% vs 7%
same,Responders: abdominal pain reduction of 3 point in median,[1]; [4],22%
same,Responders: daily abdominal pain < 2 for at least 50% of days in a week,[1]; [4],40%
same,Responders: overall reduction of mean weekly abdominal pain by >= 25%,[1]; [4],56%
same,Responders: overall reduction of mean weekly abdominal pain by >= 50%,[1]; [4],36%
same,Responders: overall reduction of mean weekly abdominal pain by >= 75%,[1]; [4],14%
same,Responders: overall reduction of median weekly abdominal pain by >= 25%,[1]; [4],63%
same,Responders: overall reduction of median weekly abdominal pain by >= 50%,[1]; [4],44%
same,Responders: overall reduction of median weekly abdominal pain by >= 75%,[1]; [4],23%
same,Abdominal Pain Responders: %,[1]; [5],51%
same,Abdominal Pain Responders: n,[1]; [5],159
same,Abdominal Pain and Stool Consistency Responders: %,[1]; [5],47%
same,Abdominal Pain and Stool Consistency Responders: n,[1]; [5],144
same,Adequate Relief of IBS Symptoms: %,[1]; [5],41%
same,Adequate Relief of IBS Symptoms: n,[1]; [5],126
same,Adequate Relief of IBS-Related Bloating: %,[1]; [5],40%
same,Adequate Relief of IBS-Related Bloating: n,[1]; [5],122
same,Stool Consistency Responders: %,[1]; [5],79%
same,Stool Consistency Responders: n,[1]; [5],244
same,Monthly responders for abdominal pain (≥30% decrease) and stool consistency (score <4),"[1]; TARGET 1, ≥2 weeks in month following 2 weeks of treatment",47%
same,Inhibition of cytochrome P450 2D6,[2],does not inhibit
same,CYP3A4 induction,[3],induces CYP3A4
